We go through three compounds from paper PMC8880564, “Design, Synthesis, and Biological Evaluation of a Novel VEGFR-2 Inhibitor Based on a 1,2,5-Oxadiazole-2-Oxide Scaffold with MAPK Signaling Pathway Inhibition” (Pharmaceuticals, 2022).

Assay in all cases: NCI-60 one-dose SRB screening
Type in all cases: cell-based

For one experiment, the system named is SF-539. The following applies: Homo sapiens, SF-539, CNS Cancer, 10 µM one dose, 48 h, read-out: growth percentage.
The next experiment relates to OVCAR-8. The following applies: Homo sapiens, OVCAR-8, Ovarian Cancer, 10 µM one dose, 48 h, read-out: growth percentage.
The subject of a further experiment is KM12. The following applies: Homo sapiens, KM12, Colon Cancer, 10 µM one dose, 48 h, read-out: growth percentage.
The subject of a further experiment is SR. The following applies: Homo sapiens, Leukemia, 10 µM one dose, 48 h, read-out: growth percentage.
Another experiment deals with SF-268. The following applies: Homo sapiens, SF-268, CNS Cancer, 10 µM one dose, 48 h, read-out: growth percentage.
In another experiment the test system is PC-3. The note with it: Homo sapiens, PC-3, Prostate Cancer, 10 µM one dose, 48 h, read-out: growth percentage.
Another experiment relates to SN12C. The following applies: Homo sapiens, Renal Cancer, 10 µM one dose, 48 h, read-out: growth percentage.
The subject of another experiment is OVCAR-5. The note with it: Homo sapiens, OVCAR-5, Ovarian Cancer, 10 µM one dose, 48 h, read-out: growth percentage.
The subject of a further experiment is OVCAR-4. The note with it: Homo sapiens, OVCAR-4, Ovarian Cancer, 10 µM one dose, 48 h, read-out: growth percentage.
For the next experiment, the system named is U251. The note with it: Homo sapiens, U-251, U251, CNS Cancer, 10 µM one dose, 48 h, read-out: growth percentage.
Another experiment relates to MOLT-4. The following applies: Homo sapiens, MOLT-4, Leukemia, 10 µM one dose, 48 h, read-out: growth percentage.
A further experiment relates to 786-0. The following applies: Homo sapiens, 786-0, Renal Cancer, 10 µM one dose, 48 h, read-out: growth percentage.
A further experiment deals with BT-549. The following applies: Homo sapiens, BT-549, Breast Cancer, 10 µM one dose, 48 h, read-out: growth percentage.
Another experiment relates to HCT-15. The note with it: Homo sapiens, HCT-15, Colon Cancer, 10 µM one dose, 48 h, read-out: growth percentage.
The subject of the next experiment is SK-MEL-28. The following applies: Homo sapiens, SK-MEL-28, Melanoma, 10 µM one dose, 48 h, read-out: growth percentage.
Another experiment deals with HL-60(TB). The note with it: Homo sapiens, Leukemia, 10 µM one dose, 48 h, read-out: growth percentage.
The next experiment concerns SNB-19. The following applies: Homo sapiens, SNB-19, CNS Cancer, 10 µM one dose, 48 h, read-out: growth percentage.
A further experiment concerns M14. The note with it: Homo sapiens, M14, Melanoma, 10 µM one dose, 48 h, read-out: growth percentage.
Another experiment concerns UO-31. The following applies: Homo sapiens, UO-31, Renal Cancer, 10 µM one dose, 48 h, read-out: growth percentage.
A further experiment deals with NCI-H226. The following applies: Homo sapiens, NCI-H226, Non-Small Cell Lung Cancer, 10 µM one dose, 48 h, read-out: growth percentage.
A further experiment has as its system SK-MEL-2. The note with it: Homo sapiens, SK-MEL-2, Melanoma, 10 µM one dose, 48 h, read-out: growth percentage.
The test system of a further experiment is HT29. The note with it: Homo sapiens, HT-29, HT29, Colon Cancer, 10 µM one dose, 48 h, read-out: growth percentage.

With `O=c1[nH]c(CCl)nc2c1cnn2-c1ccccc1` [13a], the activity at 10 µM in the experiment with SF-539 stood at 97.1%; with OVCAR-8, 114%; with KM12 it was 101%; with SR, 87.1%; in the experiment with SF-268, 99.9%; in the experiment on PC-3 it was 105%. Also, the activity at 10 µM amounted to 99.8% in the experiment with SN12C; 111% with OVCAR-5; 100% with OVCAR-4; 93.7% in the experiment with U251; 104% in the experiment with MOLT-4; 122% with 786-0. Further, the activity at 10 µM was 94.1% with BT-549; 99.9% with HCT-15; -89.8% with SK-MEL-28; 109% in the experiment with HL-60(TB); 96.3% in the experiment on SNB-19; 110% in the experiment with M14. For the same compound, the activity at 10 µM is -20.9% with UO-31, 110% in the experiment with NCI-H226, 104% in the experiment with SK-MEL-2 and 115% in the experiment on HT29.

Turning to `Cc1nn(-c2ccccc2)c2nc(CCl)[nH]c(=O)c12` [13b], the activity at 10 µM with SF-539 stood at 36.9%; in the experiment with OVCAR-8 it was 112%; in the experiment on KM12, 53.3%; in the experiment with SR it was 39.8%; in the experiment with SF-268, 106%; with PC-3, 102%. Besides, the activity at 10 µM was 95.7% with SN12C; 110% with OVCAR-5; 90.9% with OVCAR-4; 93.9% with U251; 79.6% with MOLT-4; 122% with 786-0. In addition, the activity at 10 µM came out at 100% in the experiment on BT-549; 90.6% with HCT-15; 105% in the experiment on SK-MEL-28; 33.1% with HL-60(TB); 89.4% with SNB-19; 103% with M14. In addition, the activity at 10 µM is -86.3% with UO-31, 111% in the experiment with NCI-H226, 97.9% in the experiment on SK-MEL-2 and 106% in the experiment with HT29.

Turning to `O=c1[nH]c(CNc2ccc(NCc3c(-c4ccccc4)no[n+]3[O-])cc2)nc2c1cnn2-c1ccccc1` [14a, 3-(((4-(((4-oxo-1-phenyl-4,5-dihydro-1H-pyrazolo[3,4-d]pyrimidin-6-yl)methyl)amino)phenyl)amino)methyl)-4-phenyl-1,2,5-oxadiazole 2-oxide], the activity at 10 µM in the experiment on SF-539 is 92.6%; with OVCAR-8, 109%; in the experiment with KM12, 73.3%; in the experiment on SR, 45.7%; with SF-268, 73.5%; in the experiment on PC-3, 63.3%. Moreover, the activity at 10 µM in the experiment on SN12C was determined as 79%; in the experiment on OVCAR-5 it was 64.3%; in the experiment on OVCAR-4, 94.5%; in the experiment on U251 it was 76.1%; in the experiment with MOLT-4, 44%; with 786-0, 102%. The activity at 10 µM in the experiment on BT-549 stood at 62.1%; in the experiment on HCT-15, 71.2%; in the experiment on SK-MEL-28 it was 77.2%; in the experiment with HL-60(TB) it was 63.1%; in the experiment on SNB-19, 94%; with M14, 80%. Besides, the activity at 10 µM came to 55.9% in the experiment on UO-31, 77.2% in the experiment on NCI-H226, 77.8% with SK-MEL-2 and 92% in the experiment with HT29.
